This note sets out measurements from patent publication US9777003B2, “Tricyclic heterocycles as bet protein inhibitors” (Incyte Corporation, priority 2013, dated 2017).

Where a name gives a salt, the structure may show the parent alone.

One assay concerns the target BRD4-BD2 (Homo sapiens (Human), UniProt O60885). Briefly: BRD4 AlphaScreen assay, BRD4-BD2. The class given is binding. Particulars: biotin-labeled tetra-acetylated histone H4 peptide, 75 min, room temperature, read-out: BRD4 BD-2 enzyme IC50. The essentials:
(§1)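 Displacement of 50 nM biotinylated tetra-acetylated H4 peptide (H4Ac4) from BRD4-BD1 (3.8 nM) or BRD4-BD2 (20 nM) in HEPES pH 7.4, 100 mM NaCl, CHAPS, BSA; 75 min at room temperature. Streptavidin donor/GSH acceptor beads were added for a further 75 min in the dark; IC50 from percent control activity versus log concentration.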
Background: In Alpha technology, singlet oxygen from a donor bead excites a nearby acceptor bead.

The target of the next assay is BRD4-BD1 (Homo sapiens (Human), UniProt O60885). Briefly: BRD4 AlphaScreen assay, BRD4-BD1. In kind it is binding. The conditions noted are these: biotin-labeled tetra-acetylated histone H4 peptide, 75 min, room temperature, read-out: BRD4 BD-1 enzyme IC50. The essentials: as §1

For `Cc1nnc2ccc3c(cc(-c4ccn(CCC(=O)N5CCN(C)CC5)n4)n3Cc3cccc(Cl)c3)n12` [Example 105, 6-(3-chlorobenzyl)-1-methyl-7-{1-[3-(4-methylpiperazin-1-yl)-3-oxopropyl]-1H-pyrazol-3-yl}-6H-pyrrolo[2,3-e][1,2,4]triazolo[4,3-a]pyridine], the IC50 at BRD4-BD2 and on BRD4-BD1 was no more than 100 nM throughout.

In the case of `CC(=O)N1CC(CC#N)(n2ccc(-c3cc4c(ccc5nnc(C)n54)n3Cc3cccc(Cl)c3)n2)C1` [Example 106, (1-acetyl-3-{3-[6-(3-chlorobenzyl)-1-methyl-6H-pyrrolo[2,3-e][1,2,4]triazolo[4,3-a]pyridin-7-yl]-1H-pyrazol-1-yl}azetidin-3-yl)acetonitrile], the IC50 at BRD4-BD2 and on BRD4-BD1 was no more than 100 nM throughout.

Consider `Cc1nnc2ccc3c(cc(-c4ccn(C5(CC#N)CN(S(C)(=O)=O)C5)n4)n3Cc3cccc(Cl)c3)n12` [Example 107, [3-{3-[6-(3-chlorobenzyl)-1-methyl-6H-pyrrolo[2,3-e][1,2,4]triazolo[4,3-a]pyridin-7-yl]-1H-pyrazol-1-yl}-1-(methylsulfonyl)azetidin-3-yl]acetonitrile], for which the IC50 at BRD4-BD2 and on BRD4-BD1 was no more than 100 nM in each case.

For `CC(=O)N1CC(n2ccc(-c3cc4c(ccc5nnc(C)n54)n3Cc3cccc(Cl)c3)n2)C1` [Example 108, 7-[1-(1-acetylazetidin-3-yl)-1H-pyrazol-3-yl]-6-(3-chlorobenzyl)-1-methyl-6H-pyrrolo[2,3-e][1,2,4]triazolo[4,3-a]pyridine], the IC50 on BRD4-BD2 and at BRD4-BD1 was no more than 100 nM throughout.

`Cc1nnc2ccc3c(cnn3Cc3ccccc3)n12` [Example 112, 6-benzyl-1-methyl-6H-pyrazolo[3,4-e][1,2,4]triazolo[4,3-a]pyridine]: the concentration for half-maximal inhibition (IC50) on BRD4-BD2 and at BRD4-BD1 was 100 to 1000 nM throughout.

Consider `CCNC(=O)c1cc2c(ccc3nnc(C)n32)n1Cc1cccc(Cl)c1` [Example 113, 6-(3-Chlorobenzyl)-N-ethyl-1-methyl-6H-pyrrolo[2,3-e][1,2,4]triazolo[4,3-a]pyridine-7-carboxamide Trifluoroacetate Salt], for which the IC50 at BRD4-BD2 and at BRD4-BD1 was no more than 100 nM throughout.

As to `Cc1nnc2ccc3c(cc(C(=O)NCC4CC4)n3Cc3cccc(Cl)c3)n12` [Example 114, 6-(3-Chlorobenzyl)-N-(cyclopropylmethyl)-1-methyl-6H-pyrrolo[2,3-e][1,2,4]triazolo[4,3-a]pyridine-7-carboxamide Trifluoroacetate Salt], the IC50 on BRD4-BD2 and at BRD4-BD1 was no more than 100 nM in each case.

In the case of `Cc1nnc2ccc3c(cc(C(=O)NCCN(C)C)n3Cc3cccc(Cl)c3)n12` [Example 115, 6-(3-Chlorobenzyl)-N-[2-(dimethylamino)ethyl]-1-methyl-6H-pyrrolo[2,3-e][1,2,4]triazolo[4,3-a]pyridine-7-carboxamide bis(trifluoroacetate) Salt], the IC50 on BRD4-BD2 and at BRD4-BD1 was 100 to 1000 nM in each case.

With `Cc1nnc2ccc3c(cc(C(=O)N4CCOCC4)n3Cc3cccc(Cl)c3)n12` [Example 116, 6-(3-Chlorobenzyl)-1-methyl-7-(morpholin-4-ylcarbonyl)-6H-pyrrolo[2,3-e][1,2,4]triazolo[4,3-a]pyridine Trifluoroacetate Salt], the IC50 at BRD4-BD2 and on BRD4-BD1 was 1000 to 10000 nM in each case.

As for `Cc1nnc2ccc3c(cc(C(=O)NCCO)n3Cc3cccc(Cl)c3)n12` [Example 117, 6-(3-Chlorobenzyl)-N-(2-hydroxyethyl)-1-methyl-6H-pyrrolo[2,3-e][1,2,4]triazolo[4,3-a]pyridine-7-carboxamide Trifluoroacetate Salt], the IC50 at BRD4-BD2 and on BRD4-BD1 was no more than 100 nM in each case.

As for `Cc1nnc2ccc3c(cc(C(=O)NC4CN(C)C4)n3Cc3cccc(Cl)c3)n12` [Example 118, 6-(3-Chlorobenzyl)-1-methyl-N-(1-methylazetidin-3-yl)-6H-pyrrolo[2,3-e][1,2,4]triazolo[4,3-a]pyridine-7-carboxamide bis(trifluoroacetate) Salt], the IC50 on BRD4-BD2 and on BRD4-BD1 was 100 to 1000 nM in each case.

For the compound `Cc1nnc2ccc3c(cc(C(=O)NCCN4CCOCC4)n3Cc3cccc(Cl)c3)n12` [Example 119, 6-(3-Chlorobenzyl)-1-methyl-N-(2-morpholin-4-ylethyl)-6H-pyrrolo[2,3-e][1,2,4]triazolo[4,3-a]pyridine-7-carboxamide Trifluoroacetate Salt], the IC50 on BRD4-BD2 and on BRD4-BD1 was no more than 100 nM each time.

`Cc1nnc2ccc3c(cc(C(=O)NC(C)(C)C)n3Cc3cccc(Cl)c3)n12` [Example 120, N-(tert-Butyl)-6-(3-chlorobenzyl)-1-methyl-6H-pyrrolo[2,3-e][1,2,4]triazolo[4,3-a]pyridine-7-carboxamide Trifluoroacetate Salt]: the IC50 at BRD4-BD2 and on BRD4-BD1 was 100 to 1000 nM in each case.

Consider `CCNC(=O)c1cc2c(ccc3nnc(C)n32)n1Cc1cccc(CN2CCC2)c1` [Example 121, 6-[3-(Azetidin-1-ylmethyl)benzyl]-N-ethyl-1-methyl-6H-pyrrolo[2,3-e][1,2,4]triazolo[4,3-a]pyridine-7-carboxamide bis(trifluoroacetate) Salt], for which the IC50 on BRD4-BD2 and at BRD4-BD1 was no more than 100 nM each time.

Turning to `CNC(=O)c1cc2c(ccc3nnc(C)n32)n1Cc1cccc(CN2CCC2)c1` [Example 122, 6-[3-(Azetidin-1-ylmethyl)benzyl]-N,1-dimethyl-6H-pyrrolo[2,3-e][1,2,4]triazolo[4,3-a]pyridine-7-carboxamide bis(trifluoroacetate) Salt], the IC50 on BRD4-BD2 and at BRD4-BD1 was no more than 100 nM in each case.

Take `Cc1nnc2ccc3c(cc(C(=O)NCCCO)n3Cc3ccccc3)n12` [Example 123, 6-Benzyl-N-(3-hydroxypropyl)-1-methyl-6H-pyrrolo[2,3-e][1,2,4]triazolo[4,3-a]pyridine-7-carboxamide Trifluoroacetate Salt]: the IC50 (commonly the midpoint of a concentration-inhibition curve) is no more than 100 nM at BRD4-BD2 and 100 to 1000 nM at BRD4-BD1.

`Cc1nnc2ccc3c(cc(C(=O)NCC4CNC4)n3Cc3ccccc3)n12` [Example 124, N-(Azetidin-3-ylmethyl)-6-benzyl-1-methyl-6H-pyrrolo[2,3-e][1,2,4]triazolo[4,3-a]pyridine-7-carboxamide bis(trifluoroacetate) Salt]: the IC50 at BRD4-BD2 and on BRD4-BD1 was 1000 to 10000 nM each time.

Turning to `Cc1nnc2ccc3c(cc(C(=O)NCC(C)C)n3Cc3ccccc3)n12` [Example 125, 6-Benzyl-N-isobutyl-1-methyl-6H-pyrrolo[2,3-e][1,2,4]triazolo[4,3-a]pyridine-7-carboxamide Trifluoroacetate], the IC50 at BRD4-BD2 and on BRD4-BD1 was 100 to 1000 nM throughout.

For the compound `Cc1nnc2ccc3c(cc(C(=O)NCc4ccncc4)n3Cc3ccccc3)n12` [Example 126, 6-Benzyl-1-methyl-N-(pyridin-4-ylmethyl)-6H-pyrrolo[2,3-e][1,2,4]triazolo[4,3-a]pyridine-7-carboxamide bis(trifluoroacetate) Salt], the IC50 on BRD4-BD2 and on BRD4-BD1 was 100 to 1000 nM in each case.

In the case of `Cc1nnc2ccc3c(cc(C(=O)NCCCO)n3Cc3cccc(Cl)c3)n12` [Example 127, 6-(3-Chlorobenzyl)-N-(3-hydroxypropyl)-1-methyl-6H-pyrrolo[2,3-e][1,2,4]triazolo[4,3-a]pyridine-7-carboxamide Trifluoroacetate Salt], the IC50 at BRD4-BD2 and at BRD4-BD1 was no more than 100 nM throughout.

Take `Cc1nnc2ccc3c(cc(C(=O)NCC4CNC4)n3Cc3cccc(Cl)c3)n12` [Example 128, N-(Azetidin-3-ylmethyl)-6-(3-chlorobenzyl)-1-methyl-6H-pyrrolo[2,3-e][1,2,4]triazolo[4,3-a]pyridine-7-carboxamide bis(trifluoroacetate) Salt]: the IC50 at BRD4-BD2 and at BRD4-BD1 was 100 to 1000 nM each time.

Take `Cc1nnc2ccc3c(cc(C(=O)NCC(C)C)n3Cc3cccc(Cl)c3)n12` [Example 129, 6-(3-Chlorobenzyl)-N-isobutyl-1-methyl-6H-pyrrolo[2,3-e][1,2,4]triazolo[4,3-a]pyridine-7-carboxamide Trifluoroacetate Salt]: the IC50 at BRD4-BD2 and on BRD4-BD1 was no more than 100 nM in each case.

Take `CNC(=O)c1cc2c(ccc3nnc(C)n32)n1Cc1cc(Cl)cc(CN2CCC2)c1` [Example 131, 6-[3-(Azetidin-1-ylmethyl)-5-chlorobenzyl]-N,1-dimethyl-6H-pyrrolo[2,3-e][1,2,4]triazolo[4,3-a]pyridine-7-carboxamide bis(trifluoroacetate) Salt]: the IC50 at BRD4-BD2 and on BRD4-BD1 was no more than 100 nM in each case.

As to `CCNC(=O)c1cc2c(ccc3nnc(C)n32)n1Cc1cc(Cl)cc(CN2CCCC2)c1` [Example 133, 6-[3-Chloro-5-(pyrrolidin-1-ylmethyl)benzyl]-N-ethyl-1-methyl-6H-pyrrolo[2,3-e][1,2,4]triazolo[4,3-a]pyridine-7-carboxamide bis(trifluoroacetate) Salt], the IC50 at BRD4-BD2 and at BRD4-BD1 was no more than 100 nM throughout.

For the compound `CNC(=O)c1cc2c(ccc3nnc(C)n32)n1Cc1cc(Cl)cc(CN2CCC(F)(F)C2)c1` [Example 134, 6-{3-Chloro-5-[(3,3-difluoropyrrolidin-1-yl)methyl]benzyl}-N,1-dimethyl-6H-pyrrolo[2,3-e][1,2,4]triazolo[4,3-a]pyridine-7-carboxamide 2.4×(trifluoroacetate) Salt], the IC50 on BRD4-BD2 and on BRD4-BD1 was no more than 100 nM each time.

As to `CNC(=O)c1cc2c(ccc3nnc(C)n32)n1Cc1cc(Cl)cc(CN2CC(C)(C)C2)c1` [Example 135, 6-{3-Chloro-5-[(3,3-dimethylazetidin-1-yl)methyl]benzyl}-N,1-dimethyl-6H-pyrrolo[2,3-e][1,2,4]triazolo[4,3-a]pyridine-7-carboxamide bis(trifluoroacetate) Salt], the IC50 on BRD4-BD2 and at BRD4-BD1 was no more than 100 nM each time.
